Key:
[1] = target: EGFR (mouse) (UniProt P00533); settings: nih3t3/neu
[2] = target: EGFR (mouse) (UniProt P00533); settings: nih3t3
[3] = target: EGFR (mouse) (UniProt P00533); settings: nih3t3/her14

Compound	IC50 [1] [µM]	IC50 [2] [µM]	IC50 [3] [µM]
Cn1nnc2c(C(N)=O)ncn2c1=O	210	214	207
CN(CO)N=Nc1ccc2ncnc(Nc3cccc(Br)c3)c2c1	0.09		2.1
Nc1ccc2ncnc(Nc3cccc(Br)c3)c2c1	0.42		10.4
CC(=O)N(C)N=Nc1ccc2ncnc(Nc3cccc(C)c3)c2c1	60.6		149
CNN=Nc1ccc2ncnc(Nc3cccc(Br)c3)c2c1	0.09		8.8
CNN=Nc1ccc2ncnc(Nc3cccc(C)c3)c2c1	16.5		28.9
COc1cc2ncnc(Nc3cccc(Cl)c3)c2cc1OC	4		9.8
CC(=O)OCN(C)N=Nc1ccc2ncnc(Nc3cccc(Br)c3)c2c1	0.21		3.4
COc1cc2ncnc(Nc3cccc(Cl)c3)c2cc1OC.Cn1nnc2c(C(N)=O)ncn2c1=O	1.1	39.4	6.2

From the Kinase Knowledgebase extract (Sharma et al. 2016)
